Like-named read-outs stand apart in the source and are kept apart here.
Legend:
Format in all cases: cell-based
[1] = Cytotoxicity on primocultures at 24 hours (neutral red), keratinocytes; details: read-out: Cellular Viability Rate; for viability at 24 h, 1000 µM: 10^-3M; for viability at 24 h, 100 µM: 10^-4M; for viability at 24 h, 10 µM: 10^-5M; for viability at 24 h, 1 µM: 10^-6M
Description: (§1) Their innocuousness and their activity make it possible to use them in other stages of healing, namely granulation and epithelialization, by modulating their concentration in the formulas of products that are used. This is possible only because of the low cytotoxicity of sophorolipids, as Tables 3A and 3B show. The toxicity of the products of the invention has been evaluated with a viability test with neutral red on two cellular types of the skin, cells L929 and other fibroblasts of the dermis and cells NCTC 2544 and keratinocytes of the epidermis. The results, which are presented in Tables 3A, 3B, correspond to the rates of cellular viability that are expressed in % relative to the negative test.

[2] = tested on: macrophages (Interleukin-1 release); test: IL-1 released by macrophages (Elisa sandwich test on culture supernatant)
Description: It is known, however, that several factors such as cytokines and growth factors play important roles in the process of wound healing. These factors include the epidermal growth factor (EGF), the fibroblastic growth factor (FGF), the platelet-derived growth factor (PDGF), and the beta transforming growth factor (beta-TGF). In addition to these factors, cytokines such as interleukin-l (IL-1), the tumor necrosis factor (TNF), and interleukin-6 (IL-6) also play important roles in the process of wound healing. These factors act by different methods, in combination with other materials, to induce proliferation of dermal and epidermal elements such as fibroblasts. […] Actually, IL-1 affects the differentiation, growth, and activity of many cellular types in the organism. Within the immune system, IL-1 acts as a second signal that is necessary to activate the IL-2 circuit by the activated T lymphocytes. It also potentiates the action of other cytokines. It contributes to the differentiation of B lymphocytes and to their production of immunoglobulins. It modifies vascular permeability by the release of mediators by the endothelial cells and induces the appearance at their surface of a factor that has a procoagulating activity. Owing to its proliferative effect on the fibroblasts, it intervenes in the repair phase.
To show the effect of activating macrophages by sophorolipids, an Elisa sandwich test was carried out on the supernatant of a culture medium that contained macrophages. […] A negative test was also used.

[3] = tested on: fibroblasts; test: Cytotoxicity on primocultures at 24 hours (neutral red), fibroblasts
Description: as §1

[4] = tested on: melanocytes; test: Melanine dosage in melanocytes after 7 and 14 days; details: for activity at 100 µM / activity at 10 µM / activity at 1 µM: Melanocyte, read-out: Melanine content; for activity at 100 µM: 10^-4M; for activity at 10 µM: 10^-5M; for activity at 1 µM: 10^-6M
Description: It is noted that cutaneous ageing causes epidermal functions to slow down: melanine no longer comes to the surface of the skin in a homogeneous manner and concentrates inside certain cells, and brown spots appear mainly on the hands, the forearms, and the neckline. […] Residues are picked up in PBS/triton X-100 (1% v/v) and sounds for 30 seconds. The cellular lysate is ultracentrifuged (105,000 rpm for 40 minutes at +4° C.). The residue that is obtained is then picked up in 1 ml of PBS. The proportion of protein is determined by the calorimetric method (Biorad) and then adjusted to 1.5 mg/ml.
100-(content of melanine of the tested product×100/content of melanine TN)
TN corresponds to the negative test.
As a result, again, the galenical forms are diverse. An example of an anti-spot cream for hands that is also used in cosmetics or in therapeutics is provided below, however: […]

Structure (SMILES)	viability at 24 h, 1000 µM [1] [%]	viability at 24 h, 100 µM [1] [%]	viability at 24 h, 10 µM [1] [%]	viability at 24 h, 1 µM [1] [%]	Concentrations IL-1 released by macrophages ([2]; 10^-4M) [pg/mL]	Concentrations IL-1 released by macrophages ([2]; 10^-5M) [pg/mL]	Concentrations IL-1 released by macrophages ([2]; 10^-6M) [pg/mL]	times less toxic than the lactone form ([3]; Tables 3A and 3B) [times]	Cellular Viability Rate ([3]; fibroblasts, 24 hours, 10^-6M, 1 µM)	activity at 100 µM ([4]; 168 h, at day 7) [%]	activity at 10 µM ([4]; 168 h, at day 7) [%]	activity at 1 µM ([4]; 168 h, at day 7) [%]	activity at 100 µM ([4]; 336 h, at day 14) [%]	activity at 10 µM ([4]; 336 h, at day 14) [%]	activity at 1 µM ([4]; 336 h, at day 14) [%]	effect on synthesis of melanine ([4]; unlike linolenic acid)	action on IL-1 release relative to that of lipopolysaccharides (fold) ([2]; 10^-4M)	action on IL-1 release compared with lipopolysaccharides ([2]; 10^-5M)
CC1CCCCCC/C=C\CCCCCCCC(=O)O[C@H]2[C@H](O)[C@@H](O)[C@H](O[C@H]3[C@H](O1)O[C@H](CO)[C@@H](O)[C@@H]3O)O[C@@H]2CO (stereo partly shown) [Sophorolipid in Lactone Form]	6.58	95.9	99.6	99.6	255.4	385.9	345.1											
CC(CCCCCC/C=C\CCCCCCCC(=O)O)O[C@@H]1O[C@H](CO)[C@@H](O)[C@H](O)[C@H]1O[C@@H]1O[C@H](CO)[C@@H](O)[C@H](O)[C@H]1O (stereo partly shown) [Sophorolipid in Acid Form]	86.7	99.3	99.9	99.5	795.6	500.8	287.2	10	99.65 % relative to TN	56.2	65.8	93.6	56.8	86.4	95.4	reduction in the synthesis of melanine	twice	equivalent to that of lipopolysaccharides
